According to publication PMC9389588, “1,6-epi-Cyclophellitol Cyclosulfamidate Is a Bona Fide Lysosomal α-Glucosidase Stabilizer for the Treatment of Pompe Disease” (Journal of the American Chemical Society, 2022):

Assays:
rhGAA (Myozyme) = molecular target: T1, rhGAA (Myozyme) (Homo sapiens, UniProt P10253); experiment: time-dependent inhibition of GAA; format: biochemical; conditions: preincubation 15-240 min at apparent IC50 concentration
T1 construct: purchased Sanofi Genzyme
Procedure: 2.1 Biochemical and Biological Methods
2.1.1 In vitro apparent IC50 experiments
To determine in vitro apparent IC50 values, 40 μL of enzyme-mixture was pre-incubated with 40 μL of inhibitor for […]
and 2% DMSO (v/v). GANAB in 150 mM McIlvaine buffer pH 7.0, 0.1% BSA (w/v) and 2% DMSO (v/v). GBA1 in 150 mM McIlvaine buffer pH 5.2, 0.2% Taurocholate (w/v), 0.1% Triton X-100 (v/v), 0.1% BSA (w/v), 2% DMSO (v/v). GBA2 in 150 mM McIlvaine pH 5.8, 0.1% BSA (w/v).
After preincubation, 25 μL of E+I mixture was added to a 96 wells plate and 100 μL substrate solution in the appropriate buffer was subsequently added. GAA activity was measured using final concentrations of 47 nM enzyme (Myozyme) and 3.0 mM 4-MU-α-D-glucopyranoside, for 30 minutes at 37 ℃. GANAB activity was measured using wt fibroblasts and 2.4 mM 4-MU-α-D-glucopyranoside, for 2 h at 37 ℃. GBA1 activity was measured using final concentrations of 0.7 nM enzyme (Cerezyme) and 3.0 mM 4-methylumbeliferone(4-MU)-β-D-glucopyranoside, for 30 min at 37 ℃. GBA2 residual activity was measured using cellular homogenates of HEK293T over-expressing GBA2 pre-incubated for 30 min with a GBA1 inhibitor (1 µM 37 (ME656), see Figure S1 for chemical structure), and further incubation with 3.0 mM 4-methylumbeliferone(4MU)-β-D-glucopyranoside […]

β-glucosidase GBA2 = molecular target: T2, β-glucosidase GBA2 (Homo sapiens, UniProt Q9HCG7); experiment: in vitro apparent IC50, GBA2-overexpressing HEK293T lysate; format: biochemical; conditions: apparent IC50, pH 5.8, mean ± SD
T2 construct: expressed in transfected cells; host or cells: HEK293T
T2 sequence (Q9HCG7 1-927): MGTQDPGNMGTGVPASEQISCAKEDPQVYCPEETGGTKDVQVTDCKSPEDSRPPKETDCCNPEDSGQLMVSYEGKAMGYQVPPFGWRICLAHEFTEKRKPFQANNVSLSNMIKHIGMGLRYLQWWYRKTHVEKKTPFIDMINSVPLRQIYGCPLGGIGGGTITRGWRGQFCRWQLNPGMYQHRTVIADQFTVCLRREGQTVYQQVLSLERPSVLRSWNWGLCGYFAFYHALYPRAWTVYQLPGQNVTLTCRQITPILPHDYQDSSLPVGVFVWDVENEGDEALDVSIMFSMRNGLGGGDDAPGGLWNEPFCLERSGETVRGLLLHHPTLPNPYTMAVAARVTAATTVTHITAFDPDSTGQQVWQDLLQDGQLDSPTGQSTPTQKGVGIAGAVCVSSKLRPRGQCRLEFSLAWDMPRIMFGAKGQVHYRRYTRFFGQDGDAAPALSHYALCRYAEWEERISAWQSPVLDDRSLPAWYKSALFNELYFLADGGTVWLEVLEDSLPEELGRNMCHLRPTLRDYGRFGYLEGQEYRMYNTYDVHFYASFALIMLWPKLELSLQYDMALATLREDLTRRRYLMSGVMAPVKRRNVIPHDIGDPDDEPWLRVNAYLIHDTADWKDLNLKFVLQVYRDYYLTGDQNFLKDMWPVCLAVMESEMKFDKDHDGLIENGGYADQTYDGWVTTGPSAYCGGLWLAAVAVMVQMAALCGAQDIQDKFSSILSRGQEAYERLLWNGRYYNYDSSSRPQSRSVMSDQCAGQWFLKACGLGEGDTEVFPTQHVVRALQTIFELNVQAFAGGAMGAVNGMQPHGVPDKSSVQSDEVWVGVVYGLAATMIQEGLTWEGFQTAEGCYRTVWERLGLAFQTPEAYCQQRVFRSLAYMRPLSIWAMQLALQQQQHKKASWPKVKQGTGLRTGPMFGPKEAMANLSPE

SMILES	type of inhibition (rhGAA (Myozyme))	IC50 (β-glucosidase GBA2) [µM]
O=S1(=O)N[C@@H]2[C@H](O)[C@@H](O)[C@H](O)[C@@H](CO)[C@@H]2O1 [compound 4, 1,6-epi-cyclophellitol cyclosulfamidate]	competitive manner	> 500
O=S1(=O)N[C@H]2[C@H](CO)[C@@H](O)[C@H](O)[C@@H](O)[C@H]2O1 [compound 6]	irreversible inhibitor	> 500
